Common to all, as to type: cell-based
The test system of series [1] is HCT-15 (human colon adenocarcinoma). Nature of the series: SRB cytotoxicity assay, HCT-15 cells. How it is done:
(§1) The cytotoxicity of all compounds was assessed against several cancer cell lines, namely U251 (human glioblastoma), PC-3 (human prostate adenocarcinoma), K562 (human chronic myelogenous leukemia), HCT-15 (human colon adenocarcinoma), MCF-7 (human mammary adenocarcinoma), SKLU-1 (human lung adenocarcinoma), and COS-7 (non-tumoral monkey kidney). These cell lines were obtained from the U.S. National Cancer Institute (NCI) (Montgomery County, MD, USA). The cells were cultured in RPMI-1640 medium supplemented with 10% fetal bovine serum, 2 mM L-glutamine, 10,000 units/mL penicillin G sodium, 10,000 μg/mL streptomycin sulfate, 25 μg/mL amphotericin B (Invitrogen/Gibco^TM, Thermo Fisher Scientific, Waltham, MA, USA), and 1% non-essential amino acids (Gibco). They were maintained at a temperature of 37 °C in a humidified atmosphere containing 5% CO2. The experiment’s cell viability exceeded 95%, as determined using trypan blue staining. To evaluate the cytotoxicity on human tumor cells, the protein-binding dye sulforhodamine B (SRB) was employed in a microculture assay, following the protocols established by the NCI [52, 53, 54]. The results were reported as IC50 values, representing the inhibitory concentration required for 50% inhibition. The IC50 values were determined using the Monks protocol, which involved plotting dose-response curves for each compound and estimating the concentration (IC50) at which a 50% inhibition was observed through non-linear regression analysis.
(In general: Sulforhodamine B stains cellular protein and so reports cell mass.)

Series [2] relates to PC-3 (human prostate adenocarcinoma). Put plainly: SRB cytotoxicity assay, PC-3 cells. How it is done:
as §1

Series [3] deals with COS-7 (non-tumoral monkey kidney). Nature of the series: SRB cytotoxicity assay, COS-7 non-tumoral cells. Here is the method: as §1
The test system of series [4] is MCF-7 (human mammary adenocarcinoma). Nature of the series: SRB cytotoxicity assay, MCF-7 cells. How it is done:
as §1

Series [5] concerns U251 (human glioblastoma). Nature of the series: SRB cytotoxicity assay, U251 cells. How it is done: as §1
Series [6] relates to SKLU-1 (human lung adenocarcinoma). Put plainly: SRB cytotoxicity assay, SKLU-1 cells. How it is done:
as §1

In series [7] the test system is K562 (human chronic myelogenous leukemia). Nature of the series: SRB cytotoxicity assay, K562 cells. How it is done: as §1
The mark [8] stands for this setting: HCT15 cell line, SRB assay, read-out: IC50 HCT15.
[9] abbreviates: PC-3 cell line, SRB assay, read-out: IC50 PC-3.
The mark [10] stands for this setting: non-cancerous COS-7 cells, SRB assay, read-out: IC50 COS-7.
[11] abbreviates: MCF7 cell line, SRB assay, read-out: IC50 MCF7.
[12] abbreviates: U251 cell line, SRB assay, read-out: IC50 U251.
Setting [13] is: SKLU-1 cell line, SRB assay, read-out: IC50 SKLU-1.
[14] abbreviates: K562 cell line, SRB assay, read-out: IC50 K562.

Consider five molecules from PMC10671313, “First Gallium and Indium Crystal Structures of Curcuminoid Homoleptic Complexes: All-Different Ligand Stereochemistry and Cytotoxic Potential” (International Journal of Molecular Sciences, 2023).

Entries after “also recorded” stand apart in the source; their conditions may differ. Like-named read-outs stand apart in the source and are kept apart here.

What is called IC50 is the point on the concentration scale where inhibition reaches its midpoint. On to `N.N.[Cl][Pt][Cl]` [Cisplatin, reference compound], for which the IC50 in series [1] (setting [8]) is 10 ± 0.9 µM.

For `COc1ccc(/C=C/C(=O)/C=C(O)/C=C/c2ccc(OC)c(OC)c2)cc1OC` [DiMeOC, Dimethoxycurcumin], the IC50 in series [2] (Homo sapiens, PC-3, read-out: IC50 PC-3) was 5.9 ± 0.6 µM; in series [3] (Primates, COS-7, read-out: IC50 COS-7), 2.02 ± 0.07 µM; in series [4] (Homo sapiens, MCF7, read-out: IC50 MCF7) it was 6.9 ± 1 µM; in series [5] (Homo sapiens, U-251, read-out: IC50 U251), 2.02 ± 0.07 µM; in series [6] (Homo sapiens, SK-LU-1, read-out: IC50 SKLU-1), 7.2 ± 0.4 µM; in series [1] (Homo sapiens, HCT-15, read-out: IC50 HCT15), 6.6 ± 0.3 µM. The concentration for half-maximal inhibition (IC50) in series [7] (Homo sapiens, K562, read-out: IC50 K562) stood at 6.5 ± 1.4 µM.

Consider Curcumin [reference compound], for which the IC50 in series [2] (setting [9]) was determined as 22.5 ± 1.9 µM; in series [3] (setting [10]), 21.8 ± 2.1 µM; in series [4] (setting [11]), 18.4 ± 0.9 µM; in series [5] (setting [12]) it was 20.5 ± 1.7 µM; in series [6] (setting [13]), 12.9 ± 0.7 µM; in series [1] (setting [8]) it was 21.3 ± 0.9 µM. In series [7] (setting [14]), the IC50 stood at 16.4 ± 0.04 µM.

For the molecule “Dimethoxycurcumin gallium [(DiMeOC)2-Ga]”, the “Selectivity: IC50 in COS-7 compared to PC-3” value in series [2] (COS-7 vs PC-3, times less cytotoxic) stood at 2 times. The half-maximal inhibitory concentration (IC50) came out at 10.5 ± 0.3 µM in series [2] (setting [9]); 23.2 ± 1.9 µM in series [3] (setting [10]); 15.5 ± 0.4 µM in series [4] (setting [11]); 5.3 ± 0.1 µM in series [5] (setting [12]); 2 ± 0.2 µM in series [7] (setting [14]). In series [3] (lower toxicity than cisplatin (non-cancerous COS-7)), the “Toxicity relative to cisplatin” value is “three times lesser toxicity than cisplatin; also recorded: up to three times lower toxicity than cisplatin”. For the same molecule, the “Selectivity: IC50 in COS-7 compared to U251” value in series [5] (COS-7 vs U251, times less cytotoxic) was found to be 4 times. The “Selectivity: IC50 in COS-7 compared to K562” value in series [7] (COS-7 vs K562, times less cytotoxic) is 11 times.

Take Dimethoxycurcumin indium [(DiMeOC)3-In]: the IC50 in series [2] (setting [9]) amounted to 7.6 ± 0.05 µM; in series [4] (setting [11]) it was 9.7 ± 0.4 µM; in series [5] (setting [12]) it was 6.3 ± 0.6 µM; in series [6] (setting [13]) it was 6.2 ± 0.4 µM; in series [1] (setting [8]), 7.9 ± 0.2 µM.
